How the values were obtained:
human PDE10A full length = biological target: T1, human PDE10A full length (Homo sapiens, UniProt Q9Y233); experiment: PDE10A Scintillation Proximity Assay (SPA), human PDE10A full length assay; type: biochemical; settings: 50 nM cGMP + 50 nM [3H]-cGMP, 20 minutes at room temperature, read-out: PDE10A inhibition IC50
T1 construct: purchased Enzo Life Science, Lausen, Switzerland SE-534
In short: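 SPA format with full-length enzyme in 20 mM HEPES pH 7.5, 10 mM MgCl2, 0.05 mg/ml BSA, substrate 50 nM cGMP plus 50 nM [3H]-cGMP. Reaction started with substrate, run 20 min at room temperature, stopped with YSi-SPA beads in zinc sulphate. IC50 from scintillation counts over an inhibitor concentration range.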

T1 sequence (Q9Y233 1-779 isoform Q9Y233-1): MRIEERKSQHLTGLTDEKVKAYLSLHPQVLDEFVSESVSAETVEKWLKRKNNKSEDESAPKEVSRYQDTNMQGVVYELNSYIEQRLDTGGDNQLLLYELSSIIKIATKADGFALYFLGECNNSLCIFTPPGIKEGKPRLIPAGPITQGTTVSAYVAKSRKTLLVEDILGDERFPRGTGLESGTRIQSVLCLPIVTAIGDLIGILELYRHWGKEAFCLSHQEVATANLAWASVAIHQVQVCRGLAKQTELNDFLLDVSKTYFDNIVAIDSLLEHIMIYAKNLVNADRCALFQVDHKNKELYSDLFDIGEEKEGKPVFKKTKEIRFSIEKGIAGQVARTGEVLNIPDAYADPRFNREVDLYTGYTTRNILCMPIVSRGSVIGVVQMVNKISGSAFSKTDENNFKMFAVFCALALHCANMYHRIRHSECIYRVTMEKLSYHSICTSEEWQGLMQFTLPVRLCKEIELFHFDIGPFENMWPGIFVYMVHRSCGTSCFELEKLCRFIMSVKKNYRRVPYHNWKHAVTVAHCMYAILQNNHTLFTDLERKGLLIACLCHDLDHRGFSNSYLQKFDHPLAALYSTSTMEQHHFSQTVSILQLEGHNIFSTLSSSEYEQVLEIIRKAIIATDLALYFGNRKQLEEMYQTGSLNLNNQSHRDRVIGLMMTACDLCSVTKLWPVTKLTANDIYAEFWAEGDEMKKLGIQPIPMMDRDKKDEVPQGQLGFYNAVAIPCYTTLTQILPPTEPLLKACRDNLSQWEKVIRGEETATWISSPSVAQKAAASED

| melting point | IC50 (human PDE10A full length) | Compound |
| --- | --- | --- |
| 250 to 251 °C | 0.48 nM | Cn1ncc(C(=O)N2CCCC2)c1C(=O)Nc1cc2nc(-c3ccccc3)nn2cc1F [Example 31, N-(6-fluoro-2-phenyl-[1,2,4]triazolo[1,5-a]pyridin-7-yl)-1-methyl-4-(pyrrolidine-1-carbonyl)-1H-pyrazole-5-carboxamide] |
| 224 to 225 °C | 0.98 nM | Cn1ncc(C(=O)N2CCOCC2)c1C(=O)Nc1cc2nc(-c3ccccc3)nn2cc1F [Example 32, 2-Methyl-4-(morpholine-4-carbonyl)-2H-pyrazole-3-carboxylic acid (6-fluoro-2-phenyl-[1,2,4]triazolo[1,5-a]pyridin-7-yl)-amide] |
| 141 to 143 °C | 28.3 nM | CC(C)c1nc2cc(NC(=O)c3c(C(=O)N4CCCC4)cnn3C)ccn2n1 [Example 34, N-(2-isopropyl-[1,2,4]triazolo[1,5-a]pyridin-7-yl)-1-methyl-4-(pyrrolidine-1-carbonyl)-1H-pyrazole-5-carboxamide] |
| 240 to 241 °C | 7.39 nM | CN(C)c1nc2cc(NC(=O)c3c(C(=O)N4CCC4)cnn3C)ccn2n1 [Example 35, 4-(Azetidine-1-carbonyl)-N-(2-(dimethylamino)-[1,2,4]triazolo[1,5-a]pyridin-7-yl)-1-methyl-1H-pyrazole-5-carboxamide] |
| 196 to 198 °C | 43.5 nM | CN(C)c1nc2cc(NC(=O)c3c(C(=O)N4CCOCC4)cnn3C)ccn2n1 [Example 36, N-(2-(dimethylamino)-[1,2,4]triazolo[1,5-a]pyridin-7-yl)-1-methyl-4-(morpholine-4-carbonyl)-1H-pyrazole-5-carboxamide] |
| 199 to 201 °C | 4.46 nM | CN(C)c1nc2cc(NC(=O)c3c(C(=O)N4CCCC4)cnn3C)ccn2n1 [Example 37, N-(2-(dimethylamino)-[1,2,4]triazolo[1,5-a]pyridin-7-yl)-1-methyl-4-(pyrrolidine-1-carbonyl)-1H-pyrazole-5-carboxamide] |
| 243 to 244 °C | 19.6 nM | CN(C)c1nc2cc(NC(=O)c3c(C(=O)N4CC(F)C4)cnn3C)ccn2n1 [Example 38, N-(2-(dimethylamino)-[1,2,4]triazolo[1,5-a]pyridin-7-yl)-4-(3-fluoroazetidine-1-carbonyl)-1-methyl-1H-pyrazole-5-carboxamide] |
| 165 to 167 °C | 22.4 nM | CCN(CC)C(=O)c1cnn(C)c1C(=O)Nc1ccn2nc(N3CCOCC3)nc2c1 [Example 39, N4,N4-diethyl-1-methyl-N5-(2-morpholino-[1,2,4]triazolo[1,5-a]pyridin-7-yl)-1H-pyrazole-4,5-dicarboxamide] |
| 237 to 240 °C | 7.14 nM | CN(C)C(=O)c1cnn(C)c1C(=O)Nc1ccn2nc(N3CCOCC3)nc2c1 [Example 40, N4,N4,1-trimethyl-N5-(2-morpholino-[1,2,4]triazolo[1,5-a]pyridin-7-yl)-1H-pyrazole-4,5-dicarboxamide] |
| 201 to 203 °C | 6.68 nM | CCN(C)C(=O)c1cnn(C)c1C(=O)Nc1ccn2nc(N3CCOCC3)nc2c1 [Example 41, N4-ethyl-N4,1-dimethyl-N5-(2-morpholino-[1,2,4]triazolo[1,5-a]pyridin-7-yl)-1H-pyrazole-4,5-dicarboxamide] |
| 253 to 254 °C | 5.79 nM | Cn1ncc(C(=O)N2CCC2)c1C(=O)Nc1ccn2nc(-c3cccnc3)nc2c1 [Example 44, 4-(Azetidine-1-carbonyl)-1-methyl-N-(2-(pyridin-3-yl)-[1,2,4]triazolo[1,5-a]pyridin-7-yl)-1H-pyrazole-5-carboxamide] |
| 218 to 220 °C | 4.29 nM | Cn1ncc(C(=O)N2CCOCC2)c1C(=O)Nc1ccn2nc(-c3cccnc3)nc2c1 [Example 45, 1-Methyl-4-(morpholine-4-carbonyl)-N-(2-(pyridin-3-yl)-[1,2,4]triazolo[1,5-a]pyridin-7-yl)-1H-pyrazole-5-carboxamide] |
| 226 to 228 °C | 1.17 nM | Cn1ncc(C(=O)N2CCCC2)c1C(=O)Nc1ccn2nc(-c3cccnc3)nc2c1 [Example 46, 1-Methyl-N-(2-(pyridin-3-yl)-[1,2,4]triazolo[1,5-a]pyridin-7-yl)-4-(pyrrolidine-1-carbonyl)-1H-pyrazole-5-carboxamide] |
| 247 to 249 °C | 1.24 nM | Cn1ncc(C(=O)N2CC(F)C2)c1C(=O)Nc1ccn2nc(-c3cccnc3)nc2c1 [Example 47, 4-(3-Fluoroazetidine-1-carbonyl)-1-methyl-N-(2-(pyridin-3-yl)-[1,2,4]triazolo[1,5-a]pyridin-7-yl)-1H-pyrazole-5-carboxamide] |
| 156 to 157 °C | 0.98 nM | CN(C(=O)c1cnn(C)c1C(=O)Nc1ccn2nc(-c3ccccc3)nc2c1)C1CC1 [Example 48, 2-Methyl-2H-pyrazole-3,4-dicarboxylic acid 4-(cyclopropyl-methyl-amide)3-[(2-phenyl-[1,2,4]triazolo[1,5-a]pyridin-7-yl)-amide]] |
| > 250 °C | 0.84 nM | CN(CC(F)(F)F)C(=O)c1cnn(C)c1C(=O)Nc1ccn2nc(-c3ccccc3)nc2c1 [Example 49, 2-Methyl-2H-pyrazole-3,4-dicarboxylic acid 4-[methyl-(2,2,2-trifluoro-ethyl)-amide]3-[(2-phenyl-[1,2,4]triazolo[1,5-a]pyridin-7-yl)-amide]] |
| 226 to 227 °C | 47.3 nM | CC(C)c1nc2cc(NC(=O)c3c(C(=O)N4CCC4)cnn3C)ccn2n1 [Example 50, 4-(Azetidine-1-carbonyl)-2-methyl-2H-pyrazole-3-carboxylic acid (2-isopropyl-[1,2,4]triazolo[1,5-a]pyridin-7-yl)-amide] |
| 226 to 227 °C | 42 nM | CC(C)c1nc2cc(NC(=O)c3c(C(=O)N4CC(F)C4)cnn3C)ccn2n1 [Example 51, 4-(3-Fluoro-azetidine-1-carbonyl)-2-methyl-2H-pyrazole-3-carboxylic acid (2-isopropyl-[1,2,4]triazolo[1,5-a]pyridin-7-yl)-amide] |
| 222 to 224 °C | 57.4 nM | CN(C(=O)c1cnn(C)c1C(=O)Nc1ccn2nc(N3CCOCC3)nc2c1)C1CCCC1 [Example 52, N4-cyclopentyl-N4,1-dimethyl-N5-(2-morpholino-[1,2,4]triazolo[1,5-a]pyridin-7-yl)-1H-pyrazole-4,5-dicarboxamide] |
| 200 to 208 °C | 3.69 nM | CN(CCF)C(=O)c1cnn(C)c1C(=O)Nc1ccn2nc(-c3cccnc3)nc2c1 [Example 56, 2-Methyl-2H-pyrazole-3,4-dicarboxylic acid 4-[(2-fluoro-ethyl)-methyl-amide]3-[(2-pyridin-3-yl-[1,2,4]triazolo[1,5-a]pyridin-7-yl)-amide]] |
| 229 to 232 °C | 7.03 nM | CCN(C)c1nc2cc(NC(=O)c3c(C(=O)N4CCC4)cnn3C)ccn2n1 [Example 58, 4-(Azetidine-1-carbonyl)-2-methyl-2H-pyrazole-3-carboxylic acid [2-(ethyl-methyl-amino)-[1,2,4]triazolo[1,5-a]pyridin-7-yl]-amide] |
| 167 to 169 °C | 7.97 nM | CCN(C)c1nc2cc(NC(=O)c3c(C(=O)N4CCOCC4)cnn3C)ccn2n1 [Example 59, 2-Methyl-4-(morpholine-4-carbonyl)-2H-pyrazole-3-carboxylic acid [2-(ethyl-methyl-amino)-[1,2,4]triazolo[1,5-a]pyridin-7-yl]-amide] |
| > 250 °C | 3.16 nM | Cn1ncc(C(=O)N2CCC2)c1C(=O)Nc1ccn2nc(N3CCCC3)nc2c1 [Example 60, 4-(Azetidine-1-carbonyl)-2-methyl-2H-pyrazole-3-carboxylic acid (2-pyrrolidin-1-yl-[1,2,4]triazolo[1,5-a]pyridin-7-yl)-amide] |
| 194 to 197 °C | 0.94 nM | Cn1ncc(C(=O)N2CCOCC2)c1C(=O)Nc1ccn2nc(N3CCCC3)nc2c1 [Example 61, 2-Methyl-4-(morpholine-4-carbonyl)-2H-pyrazole-3-carboxylic acid (2-pyrrolidin-1-yl-[1,2,4]triazolo[1,5-a]pyridin-7-yl)-amide] |
| 217 to 229 °C | 93.7 nM | CCNC(=O)c1nc2cc(NC(=O)c3c(C(=O)N4CCC4)cnn3C)ccn2n1 [Example 63, 7-{[4-(Azetidine-1-carbonyl)-2-methyl-2H-pyrazole-3-carbonyl]-amino}-[1,2,4]triazolo[1,5-a]pyridine-2-carboxylic acid ethylamide] |
| 159 to 161 °C | 104 nM | COCCNC(=O)c1nc2cc(NC(=O)c3c(C(=O)N4CCC4)cnn3C)ccn2n1 [Example 64, 7-(4-(Azetidine-1-carbonyl)-1-methyl-1H-pyrazole-5-carboxamido)-N-(2-methoxyethyl)-[1,2,4]triazolo[1,5-a]pyridine-2-carboxamide] |
| > 250 °C | 67.4 nM | Cn1ncc(C(=O)N2CCC2)c1C(=O)Nc1ccn2nc(Br)nc2c1 [Example 65, 4-(Azetidine-1-carbonyl)-2-methyl-2H-pyrazole-3-carboxylic acid (2-bromo-[1,2,4]triazolo[1,5-a]pyridin-7-yl)-amide] |
| > 250 °C | 1.82 nM | Cn1ncc(C(=O)N2CCC2)c1C(=O)Nc1ccn2nc(-c3ccncc3)nc2c1 [Example 66, 4-(Azetidine-1-carbonyl)-2-methyl-2H-pyrazole-3-carboxylic acid (2-pyridin-4-yl-[1,2,4]triazolo[1,5-a]pyridin-7-yl)-amide] |

From patent publication US8349824B2, “Triazolopyridine compounds” (Hoffmann-La Roche Inc., priority 2010, dated 2013)
